From patent US10703756B2, “Pyrrolo[2,3-D]pyrimidinyl, pyrrolo[2,3-B]pyrazinyl, pyrrolo[2,3-B]pyridinyl acrylamides and epoxides thereof” (Pfizer Inc., priority 2015, dated 2020)
pIC50: −log10 of the molar value.

Key:
[1] = test system: IL-15 induced P-STAT5 in human PBMC; test: PBMC IL-15 Induced P-STAT5; assay type: cell-based; settings: human PBMC, IL-15 final 41 ng/mL; read-out: PBMC IL15_pSTAT5_IC50
Summary of the method: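 Flow cytometry gated on total lymphocytes measured STAT5 staining (Alexa Fluor 647 antibody, overnight, 4 °C) in fixed, methanol-permeabilised human PBMC. Cells had received compound for 15 min at 37 °C (0.2% DMSO final), followed by 41 ng/mL final human IL-15 for 15 min.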

JAK3 enzyme [2] = biological target: T1, JAK3 enzyme (Homo sapiens, UniProt P52333); test: JAK Caliper Enzyme Assay at 1 mM ATP; assay type: biochemical
T1 sequence (P52333 1-1124): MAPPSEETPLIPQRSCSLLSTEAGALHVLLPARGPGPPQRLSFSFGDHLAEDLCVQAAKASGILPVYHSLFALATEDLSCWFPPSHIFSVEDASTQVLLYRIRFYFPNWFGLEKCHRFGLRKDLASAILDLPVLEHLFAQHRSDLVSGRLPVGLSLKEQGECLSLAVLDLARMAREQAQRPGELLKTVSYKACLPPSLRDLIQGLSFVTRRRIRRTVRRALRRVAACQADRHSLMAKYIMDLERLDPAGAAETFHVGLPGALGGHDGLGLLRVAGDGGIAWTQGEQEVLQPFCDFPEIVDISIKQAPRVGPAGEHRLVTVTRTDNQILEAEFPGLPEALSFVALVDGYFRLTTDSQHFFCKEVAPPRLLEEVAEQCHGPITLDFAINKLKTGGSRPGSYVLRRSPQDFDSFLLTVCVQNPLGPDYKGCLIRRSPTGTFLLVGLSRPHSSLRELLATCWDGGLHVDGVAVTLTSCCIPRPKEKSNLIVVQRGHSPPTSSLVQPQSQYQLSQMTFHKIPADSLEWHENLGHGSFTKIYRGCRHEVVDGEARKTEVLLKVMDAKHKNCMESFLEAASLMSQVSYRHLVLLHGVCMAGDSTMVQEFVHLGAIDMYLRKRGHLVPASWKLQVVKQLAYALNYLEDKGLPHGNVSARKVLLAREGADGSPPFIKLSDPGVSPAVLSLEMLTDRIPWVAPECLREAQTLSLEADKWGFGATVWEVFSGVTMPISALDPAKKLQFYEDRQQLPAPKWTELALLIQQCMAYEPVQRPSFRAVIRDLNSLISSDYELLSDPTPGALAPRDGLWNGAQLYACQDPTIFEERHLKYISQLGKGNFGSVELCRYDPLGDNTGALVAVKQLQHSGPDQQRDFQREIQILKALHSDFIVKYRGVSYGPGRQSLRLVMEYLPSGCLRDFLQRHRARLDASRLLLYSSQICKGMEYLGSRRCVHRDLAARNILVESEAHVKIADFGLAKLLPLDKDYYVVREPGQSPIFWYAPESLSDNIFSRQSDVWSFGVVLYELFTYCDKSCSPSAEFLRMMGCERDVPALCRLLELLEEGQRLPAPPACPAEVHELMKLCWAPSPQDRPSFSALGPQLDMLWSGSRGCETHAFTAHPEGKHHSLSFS
Summary of the method: (§1)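 Substrate conversion was kept within 20%-30% by adjusting enzyme and incubation for every preparation; peptide phosphorylation was quantified via on-chip mobility shift.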

[3] = Stability of JAK3 Covalent Inhibitors in Human Whole Blood; assay type: in vitro ADME; settings: 1 μM test compound, 37° C., 180 min incubation; for half-life at 1 μM: both sexes, read-out: Human blood stability t1/2
Description: Stability of JAK3 Covalent Inhibitors in Rat and Human Whole Blood
Rat blood was collected from 3 male Sprague-Dawley rats (200-250 g, Charles River Laboratories) and pooled for each study. Human blood was collected from healthy subjects at the Occupational Health & Wellness Center at Pfizer, Groton, Conn. and pooled for each study. Both rat and human blood was collected freshly into K2-EDTA tubes and kept on ice. An aliquot of the blood was transferred to microtubes and pre-warmed for 10 min at 37° C. using a heat block. The test compound was then added (1 μM final concentration) and the incubation was continued for 180 min at 37° C. in duplicates. An aliquot of the incubation mixture was removed at designated time points during the course of the incubation, mixed with an aliquot of acetonitrile containing an internal standard, vortexed and centrifuged. The resulting supernatants were removed and subjected to LC-MS/MS analyses to determine parent compound concentrations. Peak area ratios of the parent compound vs the internal standard were used to determine the % of parent compound remaining vs incubation time.

JAK3 enzyme [4] = biological target: T1, JAK3 enzyme; test: JAK Caliper Enzyme Assay at 4 μM ATP; assay type: biochemical
Summary of the method: as §1

SMILES	pIC50 [1]	pIC50 (JAK3 enzyme [2])	half-life at 1 μM [3] [h]	pIC50 (JAK3 enzyme [4])	Human blood stability t1/2 [3] [h]
C=CC(=O)N1CC[C@H](Oc2cnc3[nH]cc(C(=O)N[C@@H](C)COC)c3n2)C1 [Example 52, 2-{[(3S)-1-acryloylpyrrolidin-3-yl]oxy}-N-[(2S)-1-methoxypropan-2-yl]-5H-pyrrolo[2,3-b]pyrazine-7-carboxamide]	6.20	6.82	2.78	8.99	
C=CC(=O)N1C[C@@H](COCCC#N)C[C@@H](Nc2ncnc3[nH]ccc23)C1 (single isomer, unassigned) [Example 100]	< 5.00	5.57		7.12	3.52
C=CC(=O)N1CC[C@@H](Nc2cnc3[nH]cc(C(=O)NCC)c3n2)[C@H](O)C1 (single isomer, unassigned) [Example 33]	5.55	7.47	3.47	9.64	
C=CC(=O)N1CCCC(Oc2cnc3[nH]cc(C(=O)N[C@@H](C)COC)c3n2)C1 (mixture of isomers) [Example 51, Racemic-2-[(1-acryloylpiperidin-3-yl)oxy]-N-[(2S)-1-methoxypropan-2-yl]-5H-pyrrolo[2,3-b]pyrazine-7-carboxamide]	6.00	6.67	2.65	8.53	
C=CC(=O)N1CCC(Oc2cnc3[nH]cc(-c4ncn(C(C)C)n4)c3n2)CC1 [Example 124, 1-[4-({7-[1-(Propan-2-yl)-1H-1,2,4-triazol-3-yl]-5H-pyrrolo[2,3-b]pyrazin-2-yl}oxy)piperidin-1-yl]prop-2-en-1-one]	5.61	5.96	4.86	8.23	
C=CC(=O)N1C[C@@H](Nc2cnc3[nH]cc(C(=O)NCC)c3n2)CC[C@H]1C (racemic) [Example 74, Cis-racemic-2-{[1-acryloyl-6-methylpiperidin-3-yl]amino}-N-ethyl-5H-pyrrolo[2,3-b]pyrazine-7-carboxamide]	5.93	6.75	> 6	9.00	
C=CC(=O)N1C[C@@H](Nc2cnc3[nH]cc(C(=O)N[C@H](C)COC)c3n2)CC[C@H]1C (racemic) [Example 68, Cis-racemic-2-{[1-acryloyl-6-methylpiperidin-3-yl]amino}-N-[(2R)-1-methoxypropan-2-yl]-5H-pyrrolo[2,3-b]pyrazine-7-carboxamide]	5.34	6.61	> 6	8.66	
C=CC(=O)N1CC[C@H](Nc2cnc3[nH]cc(C(=O)NCC)c3n2)[C@H](C)C1 (single isomer, unassigned) [Example 39]	5.62	6.69	> 6	8.99	
C=CC(=O)N1CC[C@H](Oc2cnc3[nH]cc(C(=O)NCC)c3n2)C[C@H]1C (single isomer, unassigned) [Example 78]	6.03	6.50	> 6	8.74	
C=CC(=O)N1CCC[C@H]1COc1cnc2[nH]cc(C(=O)N[C@@H](C)COC)c2n1 (single isomer, unassigned) [Example 8]	6.88	7.34	> 6	9.45	
C=CC(=O)N1CC[C@H](Nc2cnc3[nH]cc(C(=O)N[C@@H](C)COC)c3n2)C[C@@H]1C (racemic) [Example 353, 2-(((2S,4S)-1-Acryloyl-2-methylpiperidin-4-yl)amino)-N—((S)-1-methoxypropan-2-yl)-5H-pyrrolo[2,3-b]pyrazine-7-carboxamide]	5.66	6.91	> 6	8.83	
C=CC(=O)N1CC[C@H](Nc2cnc3[nH]cc(C(=O)NCC)c3n2)[C@@H](C)C1 (single isomer, unassigned) [Example 45]	6.34	7.24	3.37	9.41	
C=CC(=O)N1CCCC1COc1cnc2[nH]cc(C(=O)N[C@@H](C)COC)c2n1 (mixture of isomers) [Example 7, Racemic-2-[(1-acryloylpyrrolidin-2-yl)methoxyl]-N-[(2S)-1-methoxypropan-2-yl]-5H-pyrrolo[2,3-b]pyrazine-7-carboxamide]	6.39	6.97	2.63	8.83	
C=CC(=O)N1CCC[C@@H](Oc2cnc3[nH]cc(C(=O)N[C@@H](C)COC)c3n2)C1 [Example 49, 2-{[(3R)-1-acryloylpiperidin-3-yl]oxy}-N-[(2S)-1-methoxypropan-2-yl]-5H-pyrrolo[2,3-b]pyrazine-7-carboxamide]		5.68	3.27	7.57	
C=CC(=O)N(C)C1CN(c2cnc3[nH]cc(C(=O)N[C@@H](C)COC)c3n2)C1 [Example 85, 2-{3-[acryloyl(methyl)amino]azetidin-1-yl}-N-[(2S)-1-methoxypropan-2-yl]-5H-pyrrolo[2,3-b]pyrazine-7-carboxamide]		6.33	1.38	8.54	
C=CC(=O)N1CC[C@H](COc2cnc3[nH]cc(C(=O)N[C@@H](C)COC)c3n2)C1 (single isomer, unassigned) [Example 11]		6.51	3.46	8.79	
C=CC(=O)N1CCC(Oc2cnc3[nH]cc(-c4ncnn4CC)c3n2)CC1 [Example 121, 1-(4-((7-(1-ethyl-1H-1,2,4-triazol-5-yl)-5H-pyrrolo[2,3-b]pyrazin-2-yl)oxy)piperidin-1-yl)prop-2-en-1-one]		6.04	2.67	8.16	
C=CC(=O)N1CCC(Oc2cnc3[nH]cc(-c4nnc[nH]4)c3n2)CC1 [Example 120, 1-(4-{[7-(4H-1,2,4-Triazol-3-yl)-5H-pyrrolo[2,3-b]pyrazin-2-yl]oxy}piperidin-1-yl)prop-2-en-1-one]		6.14	> 6	8.35	
C=CC(=O)N1CCC(Oc2cnc3[nH]cc(-c4nnco4)c3n2)CC1 [Example 128, 1-(4-{[7-(1,3,4-Oxadiazol-2-yl)-5H-pyrrolo[2,3-b]pyrazin-2-yl]oxy}piperidin-1-yl)propan-2-en-1-one]		6.10	> 6	8.18	
C=CC(=O)N1CC[C@H](Nc2cnc3c(n2)c(C(=O)NCC)cn3C)C[C@@H]1C (single isomer, unassigned) [Example 350]		5.36	> 6	7.49	
C=CC(=O)N1CCC(Oc2cnc3[nH]cc(-c4n[nH]c(C)n4)c3n2)CC1 [Example 115, 1-(4-{[7-(5-Methyl-1H-1,2,4-triazol-3-yl)-5H-pyrrolo[2,3-b]pyrazin-2-yl]oxy}piperidin-1-yl)prop-2-en-1-one]		6.03	3.77	8.08	
C=CC(=O)N1CC[C@@H](Nc2cnc3c(n2)c(C(=O)NCC)cn3C)C[C@H]1C (single isomer, unassigned) [Example 351]		6.08	5.52	8.54	
